Source: ChEMBL document CHEMBL5113408, “Design, synthesis and antitumour activity of novel 5(6)-amino-benzimidazolequinones containing a fused morpholine” (Eur J Med Chem, 2022)

Tests used:
Format in all cases: functional, cell-based
MGC-803 = assay: Antiproliferative activity against human MGC-803 cells assessed as inhibition of cell growth by SRB assay
MCF7 = assay: Antiproliferative activity against human MCF7 cells assessed as inhibition of cell growth by SRB assay
ECa-109 cell line = assay: Antiproliferative activity against human EC109 cells assessed as inhibition of cell growth by SRB assay
HeLa = assay: Antiproliferative activity against human HeLa cells assessed as inhibition of cell growth by SRB assay

COc1cccc(NC2=CC(=O)c3c(nc4n3[C@H]3OC[C@@H](O)[C@H]3OC4)C2=O)c1
IC50 (MGC-803): 1.79 µM | IC50 (MCF7): 3.83 µM | IC50 (ECa-109 cell line): 3.34 µM | IC50 (HeLa): > 8 µM

COc1ccc(NC2=CC(=O)c3c(nc4n3[C@H]3OC[C@@H](O)[C@H]3OC4)C2=O)cc1
IC50 (MGC-803): 2.15 µM | IC50 (MCF7): 4.47 µM | IC50 (ECa-109 cell line): 3.41 µM | IC50 (HeLa): > 8 µM

O=C1C=C(NC2CC2)C(=O)c2c1nc1n2C[C@@H]([C@H](O)CO)OC1
IC50 (MGC-803): > 16 µM | IC50 (MCF7): > 16 µM | IC50 (ECa-109 cell line): > 16 µM | IC50 (HeLa): > 16 µM

O=C1C(NC2CCCC2)=CC(=O)c2c1nc1n2[C@H]2OC[C@@H](O)[C@H]2OC1
IC50 (MGC-803): > 16 µM | IC50 (MCF7): > 16 µM | IC50 (ECa-109 cell line): > 16 µM | IC50 (HeLa): > 16 µM

O=C1C=C(Nc2ccccc2)C(=O)c2c1nc1n2[C@H]2OC[C@@H](O)[C@H]2OC1
IC50 (MGC-803): 1.73 µM | IC50 (MCF7): > 4 µM | IC50 (ECa-109 cell line): 4.97 µM | IC50 (HeLa): 5.62 µM

O=C1C=C(Nc2ccccc2F)C(=O)c2c1nc1n2[C@H]2OC[C@@H](O)[C@H]2OC1
IC50 (MGC-803): 2.08 µM | IC50 (MCF7): 3.64 µM | IC50 (ECa-109 cell line): 2.76 µM | IC50 (HeLa): 5.12 µM

CCOc1ccccc1NC1=CC(=O)c2nc3n(c2C1=O)[C@H]1OC[C@@H](O)[C@H]1OC3
IC50 (MGC-803): 2.45 µM | IC50 (MCF7): > 4 µM | IC50 (ECa-109 cell line): 4.63 µM | IC50 (HeLa): 6.04 µM

O=C1C=C(NC2CCCC2)C(=O)c2c1nc1n2[C@H]2OC[C@@H](O)[C@H]2OC1
IC50 (MGC-803): > 8 µM | IC50 (MCF7): > 16 µM | IC50 (ECa-109 cell line): > 16 µM | IC50 (HeLa): > 16 µM

COc1ccc(NC2=CC(=O)c3nc4n(c3C2=O)C[C@@H]([C@H](O)CO)OC4)cc1
IC50 (MGC-803): 8.9 µM | IC50 (MCF7): > 16 µM | IC50 (ECa-109 cell line): > 16 µM | IC50 (HeLa): 7.15 µM

CCCN(CCC)C1=CC(=O)c2nc3n(c2C1=O)[C@H]1OC[C@@H](O)[C@H]1OC3
IC50 (MGC-803): > 16 µM | IC50 (MCF7): > 16 µM | IC50 (ECa-109 cell line): > 16 µM | IC50 (HeLa): > 16 µM

O=C1C(Nc2cccc(F)c2)=CC(=O)c2c1nc1n2C[C@@H]([C@H](O)CO)OC1
IC50 (MGC-803): 3.04 µM | IC50 (MCF7): 5.89 µM | IC50 (ECa-109 cell line): 6.56 µM | IC50 (HeLa): > 16 µM

O=C1C=C(Nc2ccc(Br)cc2)C(=O)c2c1nc1n2[C@H]2OC[C@@H](O)[C@H]2OC1
IC50 (MGC-803): 1.01 µM | IC50 (MCF7): 2.58 µM | IC50 (ECa-109 cell line): 2.85 µM | IC50 (HeLa): 3.83 µM

COc1ccccc1NC1=CC(=O)c2c(nc3n2C[C@@H]([C@H](O)CO)OC3)C1=O
IC50 (MGC-803): 4.42 µM | IC50 (MCF7): 6.81 µM | IC50 (ECa-109 cell line): 7.64 µM | IC50 (HeLa): 8.97 µM

CCCc1ccc(NC2=CC(=O)c3nc4n(c3C2=O)C[C@@H]([C@H](O)CO)OC4)cc1
IC50 (MGC-803): 3.67 µM | IC50 (MCF7): 5.94 µM | IC50 (ECa-109 cell line): 6.88 µM | IC50 (HeLa): 3.29 µM

COc1ccccc1NC1=CC(=O)c2c(nc3n2[C@H]2OC[C@@H](O)[C@H]2OC3)C1=O
IC50 (MGC-803): 1.67 µM | IC50 (MCF7): 6.58 µM | IC50 (ECa-109 cell line): > 4 µM | IC50 (HeLa): 7.46 µM

Cc1ccc(NC2=CC(=O)c3c(nc4n3C[C@@H]([C@H](O)CO)OC4)C2=O)cc1
IC50 (MGC-803): 4.11 µM | IC50 (MCF7): 7.41 µM | IC50 (ECa-109 cell line): 5.08 µM | IC50 (HeLa): 5.86 µM

O=C1C=C(Nc2ccc(C(F)(F)F)cc2)C(=O)c2c1nc1n2[C@H]2OC[C@@H](O)[C@H]2OC1
IC50 (MGC-803): 2.82 µM | IC50 (MCF7): > 4 µM | IC50 (ECa-109 cell line): 5.5 µM | IC50 (HeLa): > 8 µM

CCc1ccc(NC2=CC(=O)c3c(nc4n3C[C@@H]([C@H](O)CO)OC4)C2=O)cc1
IC50 (MGC-803): 3.69 µM | IC50 (MCF7): 6.57 µM | IC50 (ECa-109 cell line): 4.54 µM | IC50 (HeLa): 4.59 µM

CCOc1ccc(NC2=CC(=O)c3c(nc4n3[C@H]3OC[C@@H](O)[C@H]3OC4)C2=O)cc1
IC50 (MGC-803): 2.09 µM | IC50 (MCF7): > 4 µM | IC50 (ECa-109 cell line): > 4 µM | IC50 (HeLa): 14.4 µM

CCOc1ccc(NC2=CC(=O)c3nc4n(c3C2=O)[C@H]2OC[C@@H](O)[C@H]2OC4)cc1
IC50 (MGC-803): 1.11 µM | IC50 (MCF7): 1.43 µM | IC50 (ECa-109 cell line): 3.21 µM | IC50 (HeLa): 3.11 µM

O=C1C(Nc2ccc(I)cc2)=CC(=O)c2c1nc1n2[C@H]2OC[C@@H](O)[C@H]2OC1
IC50 (MGC-803): 2.15 µM | IC50 (MCF7): 3.89 µM | IC50 (ECa-109 cell line): 2.53 µM | IC50 (HeLa): 4.01 µM

O=C1C(Nc2ccc(Br)cc2)=CC(=O)c2c1nc1n2C[C@@H]([C@H](O)CO)OC1
IC50 (MGC-803): 2.78 µM | IC50 (MCF7): 5.01 µM | IC50 (ECa-109 cell line): 3.56 µM | IC50 (HeLa): 7.89 µM
